{"source": "ChEMBL document CHEMBL5214900", "about": "“Design, Synthesis, and Biological Evaluation of Membrane-Active Bakuchiol Derivatives as Effective Broad-Spectrum Antibacterial Agents” (J Med Chem, 2021)", "key": {"[1]": {"assay": "Cytotoxicity against mouse NCTC clone 929 cells assessed as cell viability incubated for 24 hrs by CCK-8 assay", "format": "toxicity, cell-based"}, "Staphylococcus aureus [2]": {"system": "Staphylococcus aureus", "assay": "Antibacterial activity against Staphylococcus aureus ATCC 29213 assessed as eradication of preformed bacterial biofilm by measuring residual biofilm viability at 0.78 ug/ml incubated for 24 hrs by crystal violet staining based assay relative to control", "format": "functional", "settings": "dose 0.78 µg/ml"}, "Lipopolysaccharide (LPS)": {"system": "Lipopolysaccharide (LPS)", "assay": "Displacement of BODIPY-TR-cadaverine from Escherichia coli Lipopolysaccharide at 2 times MIC measured for 30 mins by fluorescence based microplate reader assay relative to control"}, "[3]": {"assay": "Cytotoxicity against HEK293 cells assessed as cell viability incubated for 24 hrs by CCK-8 assay", "format": "toxicity, cell-based", "settings": "human"}, "Escherichia coli [4]": {"system": "Escherichia coli", "assay": "Antibacterial activity against Escherichia coli ATCC 25922 assessed as inhibition of bacterial growth incubated for 24 hrs by CLSI based broth dilution method", "format": "functional"}, "[5]": {"assay": "Toxicity in C57BL/6 mouse assessed as corneal damage at 0.8 mg/ml, TOP administered 4 times a day for 3 consecutive days", "settings": "in vivo, topical_or_ocular, 72 h, time 3 day"}, "[6]": {"assay": "Cytotoxicity against HEK293 cells assessed as cell viability at 25 ug/ml incubated for 24 hrs by CCK-8 assay relative to control", "format": "toxicity, cell-based", "settings": "human, at 25 µg/mL, read-out: Activity"}, "Klebsiella pneumoniae": {"system": "Klebsiella pneumoniae", "assay": "Antibacterial activity against Klebsiella pneumoniae ATCC 10031 assessed as inhibition of bacterial growth incubated for 24 hrs by CLSI based broth dilution method", "format": "functional"}, "[7]": {"assay": "Hemolytic activity in rabbit RBC measured after 1 hrs by multimode reader assay", "format": "toxicity, cell-based, Oryctolagus cuniculus, Erythrocyte", "settings": "rabbit red blood cells (erythrocytes)"}, "Escherichia coli [8]": {"system": "Escherichia coli", "assay": "Bactericidal activity against Escherichia coli ATCC 25922 assessed as inhibition of bacterial regrowth at 4 to 8 times MIC measured after 24 hrs by time-killing assay", "format": "functional, organism-based"}, "[9]": {"assay": "Cytotoxicity against mouse NCTC clone 929 cells assessed as cell viability at 6.25 ug/ml incubated for 24 hrs by CCK-8 assay relative to control", "format": "toxicity, cell-based", "settings": "at 6.25 µg/mL, read-out: Activity"}, "Staphylococcus aureus [10]": {"system": "Staphylococcus aureus", "assay": "Antibacterial activity against Staphylococcus aureus ATCC 29213 assessed as fold increase in MIC incubated for 24 hrs in presence of 1 mM Mg2+ by CLSI based broth dilution method", "format": "functional"}, "Staphylococcus aureus [11]": {"system": "Staphylococcus aureus", "assay": "Antibacterial activity against Staphylococcus aureus ATCC 29213 assessed as inhibition of bacterial growth incubated for 24 hrs by CLSI based broth dilution method", "format": "functional"}, "Acinetobacter baumannii [12]": {"system": "Acinetobacter baumannii", "assay": "Antibacterial activity against Acinetobacter baumannii ATCC 17978 assessed as fold increase in MIC incubated for 24 hrs in presence of 140 mM Na+ by CLSI based broth dilution method", "format": "functional"}, "Escherichia coli [13]": {"system": "Escherichia coli", "assay": "Antibiofilm activity against Escherichia coli ATCC 25922 assessed reduction in biofilm formation at 0.78 ug/ml measured after 24 hrs by crystal violet staining based assay relative to control", "format": "functional", "design": "scale not given: the % may be the effect or the level left", "settings": "dose 0.78 µg/ml"}, "Lipoteichoic acid": {"system": "Lipoteichoic acid", "assay": "Displacement of BODIPY-TR-cadaverine from Bacillus subtilis Lipoteichoic acid at 4 times MIC measured for 30 mins by fluorescence based microplate reader assay relative to control"}, "Cell membrane [14]": {"system": "Cell membrane", "assay": "Induction of outer membrane permeabilization in Escherichia coli ATCC 25922 assessed as increase in fluorescence intensity at 1 to 8 times MIC measured for 60 mins by NPN uptake assay", "format": "subcellular", "settings": "DDE = dose-dependent effect"}, "Cell membrane [15]": {"system": "Cell membrane", "assay": "Disruption of membrane integrity in Pseudomonas aeruginosa ATCC 9027 assessed as increase in red fluorescence intensity at 8 times MIC incubated for 2 hrs by SYTO 9/PI staining based fluorescence analysis", "format": "subcellular"}, "Acinetobacter baumannii [16]": {"system": "Acinetobacter baumannii", "assay": "Antibacterial activity against Acinetobacter baumannii ATCC 17978 assessed as fold increase in MIC incubated for 24 hrs in presence of 1 mM Mg2+ by CLSI based broth dilution method", "format": "functional"}, "Escherichia coli [17]": {"system": "Escherichia coli", "assay": "Antibiofilm activity against Escherichia coli ATCC 25922 assessed reduction in biofilm formation at […] ug/ml measured after 24 hrs by crystal violet staining based assay relative to control", "format": "functional", "design": "scale not given: the % may be the effect or the level left", "settings": "dose […] microg/ml, 1.56 ug/mL"}, "Escherichia coli [18]": {"system": "Escherichia coli", "assay": "Antibacterial activity against Escherichia coli ATCC 25922 assessed as fold increase in MIC incubated for 24 hrs in presence of 1 mM Mg2+ by CLSI based broth dilution method", "format": "functional"}}, "note": "Active and inactive are the calls of the source. The rule behind the calls is not given here."}
{"smiles": "C=C[C@@](C)(/C=C/c1ccc(OCCCCN(CCCN(C)C)CCCN(C)C)cc1)CCC=C(C)C", "values": [{"measurement": "CC50 at 24 h", "setting": "[1]", "result": 36.8, "unit": "µg/mL"}, {"measurement": "Activity", "setting": "Staphylococcus aureus [2]", "result": 88.63, "unit": "%"}, {"measurement": "Activity", "setting": "Lipopolysaccharide (LPS)", "result": 53.3, "unit": "%"}, {"measurement": "CC50 at 24 h", "setting": "[3]", "result": 28.6, "unit": "µg/mL"}, {"measurement": "MIC", "setting": "Escherichia coli [4]", "result": 3.12, "unit": "µg/mL"}, {"measurement": "Activity", "setting": "[5]", "result": "Non-Toxic"}, {"measurement": "viability at 24 h, 25 ug/ml", "setting": "[6]", "result": 63.3, "unit": "%"}, {"measurement": "MIC", "setting": "Klebsiella pneumoniae", "result": 3.12, "unit": "µg/mL"}, {"measurement": "HC50 at 1 h", "setting": "[7]", "result": 113, "unit": "µg/mL"}, {"measurement": "Activity", "setting": "Escherichia coli [8]", "result": "Active"}, {"measurement": "viability at 24 h, 6.25 ug/ml", "setting": "[9]", "result": 84.9, "unit": "%"}, {"measurement": "fold change (FC)", "setting": "Staphylococcus aureus [10]", "result": "<2"}, {"measurement": "MIC", "setting": "Staphylococcus aureus [11]", "result": 3.12, "unit": "µg/mL"}, {"measurement": "fold change (FC)", "setting": "Acinetobacter baumannii [12]", "result": "<2"}, {"measurement": "Activity", "setting": "Escherichia coli [13]", "result": 8.71, "unit": "%"}, {"measurement": "Activity", "setting": "Lipoteichoic acid", "result": 37.2, "unit": "%"}, {"measurement": "Activity", "setting": "Cell membrane [14]", "result": "Dde"}, {"measurement": "Activity", "setting": "Cell membrane [15]", "result": "Active"}, {"measurement": "fold change (FC)", "setting": "Acinetobacter baumannii [16]", "result": "<2"}, {"measurement": "Activity", "setting": "Escherichia coli [17]", "result": 38.45, "unit": "%"}, {"measurement": "fold change (FC)", "setting": "Escherichia coli [18]", "result": "<2"}]}
